Results from patent publication EP0927045B1, “TUMOR HOMING MOLECULES, […] THEREFROM, AND METHODS OF USING SAME” (The Burnham Institute, priority 1996, dated 1998).
Where two headings read alike, the source gives them in different places. Where no end group is shown, it is not given here.

Key:
[1] = tested on: MDA-MB-435 human breast carcinoma cells; test: In vitro characterization of cytotoxicity, crystal violet staining; type: cell-based
Experimental: (§1) (SEQ ID NO: 1) conjugate, or the doxorubicin/[sequence] (SEQ ID NO: 19; control) conjugate (0.1 to 10 µg/well of doxorubicin-equivalent) for either 30 min or overnight. Following incubation, the agents were removed by extensive washing with PBS, then fresh medium added and incubation was continued. The number of surviving cells was determined at 24 hours with crystal violet staining (see Koivunen et al., supra, 1994).

[2] = tested on: MDA-MB-435 breast carcinoma; test: Tumor therapy with doxorubicin/peptide conjugates in tumor bearing mice; type: in vivo, Balb c nu/nu mice; settings: for effect on tumor growth: relative to treatment with the vehicle, alone
Experimental: Female 2-month old Balb c nu/nu mice (Harlan Sprague Dawley; San Diego CA) were used for these studies and were cared for according to the Burnham Institute animal facility guidelines. […] Tumors were allowed to grow to a size of about 1 cm^3 (about 5% of the mouse's body weight) before starting the treatment experiments, except for the toxicity experiments as discussed below.
Weekly doxorubicin/peptide conjugate or control treatments (5 µg/mouse/week of doxorubicin-equivalent) were administered intravenously. In some experiments, as indicated, a dose of 30 µg/mouse was administered every 3 weeks. Treatment with doxorubicin, alone, is referred to as "dox control" and treatment with doxorubicin conjugated to the non-tumor homing control peptide, […] As an additional control, in some experiments the tumor homing peptide was mixed with doxorubicin, without linking, and the mixture was administered to tumor bearing mice. Such treatment produced results that were not statistically different from those obtained with the above described dox controls.
Mice were anesthetized with a tribromoethanol-based anesthetic mixture (AVERTIN; Papaioannou and Fox, Lab. Anim. 43:189-192 (1993)) before each treatment. Anesthetization facilitated the tail vein injections (final volume, 200 µl) and allowed precise serial three dimensional tumor size measurements. Tumor volume calculations were based on the equation for the volume of an ovaloid: V=4/3(nabc), where a, b, and c are 1/2 of the measured diameters in each of the three dimensions.

[3] = Acute toxicity in mice bearing extremely large tumors; type: in vivo; settings: 200 µg/mouse; tumors about 25% of body weight
Experimental: Acute toxicity studies also were performed.

human Kaposi's sarcoma = test: In vivo targeting of phage to a tumor; parameters: species or system mice; settings: human Kaposi's sarcoma xenograft
Experimental: Since the αvβ3 integrin is expressed by endothelial cells in angiogenic vasculature, experiments were performed to determine whether tumor vasculature that is undergoing angiogenesis can be targeted in vivo using methods as disclosed herein. Phage expressing the peptide, […] (SEQ ID NO: 1; see, Koivunen et al., supra, 1995), which is known to bind to the αvβ3 integrin, were injected into mice bearing tumors formed from human breast carcinoma cells, mouse melanoma cells or human Kaposi's sarcoma cells (see Example IV). The […] […] For example, in mice bearing tumors formed by implantation of human breast carcinoma cells, a twenty-to eighty-fold greater number of the […] (SEQ ID NO: 1) phage, as compared to unselected control phage, accumulated in the tumor.

[4] = tested on: Human 435 breast carcinoma; test: In vivo targeting of phage to a tumor, phage in organs quantitated; parameters: species or system nude mice
Experimental: When the tumors attained a diameter of about 1 cm, phage expressing a specific RGD-containing peptide were administered to the tumor bearing mouse. Similar results TABLE 1
1 x 10^9 phage expressing the RGD-containing peptide, […] (SEQ ID NO: 1; see, Koivunen et al., supra, 1995) or control (insertless) phage were injected intravenously (iv) into the mice and allowed to circulate for 4 min. The mice then were snap frozen or perfused through the heart while under anesthesia, and various organs, including tumor, brain and kidney, were removed and the phage present in the organs was quantitated (see U.S. Patent No. 5,622,699; Pasqualini and Ruoslahti, supra, 1996).

breast tumor = test: Viability of tumor cells plated from tumors of treated mice; type: in vivo; settings: 30 pg equivalent iv, tumors removed five days after treatment, cell numbers 24 hours and 7 days after plating
Description: In addition, the viability of tumor cells obtained from tumors of mice treated with a tumor homing peptide/doxorubicin conjugate was compared to that of tumors from mice treated with free doxorubicin. In these experiments, breast tumor bearing mice were size matched with regard to the tumors, then treated intravenously with 30 pg equivalent of doxorubicin/[…] (SEQ ID NO: 1) or of free doxorubicin. Five days after treatment, the mice were euthanized and the tumors were removed. The tumor pairs were weighed and ground and the cell suspensions were plated (2 g tumor tissue per 150 mm plate).
Cell numbers were determined at 24 hours and 7 days after plating. Viability of tumor cells from the tumors of mice receiving the doxorubicin/[…] (SEQ ID NO: 1) conjugate was about 3 fold less than cells from tumors of mice treated with the free doxorubicin.

[5] = tested on: MDA-MB-435 human breast carcinoma cells; type: cell-based; settings: for cell killing: agents not removed after 30 min, after 24 hr
Experimental: as §1

[6] = Acute toxicity in mice bearing extremely large tumors; type: in vivo; settings: 200 µg/mouse; tumors about 25% of body weight; remark: listed apart in the source
Experimental: Acute toxicity studies also were performed. […] (SEQ ID NO: 1) conjugate. All of the mice treated with the doxorubicin/[…]

[7] = exposure 30 min, then agents removed, 0.1 to 10 µg/well doxorubicin-equivalent, surviving cells at 24 hours
[8] = 5 µg/mouse/week doxorubicin-equivalent
[9] = 5 µg/mouse/week doxorubicin-equivalent iv
[10] = 5 µg/mouse/week doxorubicin-equivalent iv, at necropsy, t test p<0.0001

Compound: COc1cccc2c1C(=O)c1c(O)c3c(c(O)c1C2=O)C[C@@](O)(C(=O)CO)C[C@@H]3O[C@H]1C[C@H](N)[C@H](O)[C@H](C)O1 [doxorubicin]
- cell killing ([1]; agents not removed after 30 min, after 24 hr): killed
- cell death [1, 7]: cell death was present only in the cultures treated with the doxorubicin/CDCRGDCFC
- gross examination: skin ulceration and tumor necrosis ([2]; 5 µg/mouse/week doxorubicin equivalent): no such signs were observed
- effect on tumor growth [2]: essentially no effect on tumor growth
- time to death after treatment [3]: ≤ 48 h

Compound: CLSGSLSC
- selective homing of phage to the tumor (human Kaposi's sarcoma): also homed
- selective homing of phage to the tumor [4]: also homed

Compound: doxorubicin/CDCRGDCFC: CDCRGDCFC (SEQ ID NO: 1) coupled to doxorubicin using EDC and NHS (cysteine pairing not given here; also: doxorubicin coupled via EDC/NHS)
- gross examination: skin ulceration and tumor necrosis [2, 8]: marked skin ulceration and tumor necrosis
- survival compared with dox control and conjugate control [2, 9]: survived beyond the time when the dox control and conjugate control mice had died
- tumor size compared with controls [2, 9]: significantly smaller tumors
- pulmonary metastasis compared with dox control [2, 10]: a lower incidence of pulmonary metastasis and fewer metastatic lesions
- spread to regional lymph nodes compared with dox control [2, 10]: less spread to regional lymph nodes
- time alive after the dox control and conjugate control mice had died ([2]; dose escalation: 30 µg/mouse every three weeks for three cycles): more than 6 months
- histopathological analysis of tumor vasculature compared with dox control ([2]; mouse, in vivo): pronounced destruction of the vasculature
- viability of tumor cells relative to cells from tumors of mice treated with free doxorubicin (breast tumor): about 3 fold less
- cell killing [5]: killed
- cell death [5, 7]: cell death was present
- survival after treatment [6]: survived for longer than one week

Compound: doxorubicin/GACVFSIAHECGA: doxorubicin conjugated to the non-tumor homing control peptide, GACVFSIAHECGA (SEQ ID NO: 19) (cysteine pairing not given here; also: doxorubicin conjugated) [reference compound]
- gross examination: skin ulceration and tumor necrosis [2, 8]: no such signs were observed
- treatment results compared with dox control [2, 9]: not significantly different
- effect on tumor growth [2]: essentially no effect on tumor growth
- cell death [5]: cell death was present only in the cultures treated with the doxorubicin/[…]
- cell killing [5]: killed
